Measured values from patent publication US20250248393A1, “METHOD OF RELEASING A SEMIOCHEMICAL IN THE ENVIRONEMENT BY PASSIVE DIFFUSION, SYSTEM AND MEANS, ESPECIALLY STICKS, TO THIS END, AND USES THEREOF” (SIGNS, priority 2024, published 2025).
Read-outs that look alike come from different tables or passages of the source.

Key:
[1] = DAP PCDS direct diffusion (SPME-GC/MS); type: physicochemical; conditions: DAP/PCDS diffuser, 40 mL, 6 capillaries
Experimental: Three diffusers, each containing 40 mL of solution and 6 capillaries, were prepared and diffused. The first points were measured at T=1d, T=2, and T=3d, then every Monday, Wednesday and Friday of each study week until the diffusers no longer contained any solution. To measure the pheromone released into the air at each study time, the diffuser is first weighed (with the sticks) to measure mass loss, then placed in an enclosed area (in this case, an upside-down aquarium) containing a SPME fiber, as shown in FIG. 24.
The fiber is left to diffuse above the diffuser for 2 hours (a time determined in a previous method development as the optimum time for molecules to adsorb to the phase), then analyzed using the gas chromatography/mass spectrometry (GC/MS) technique.
Three diffusers were studied for greater accuracy. The chromatograms obtained are reprocessed using GC/MS Solution software.
For each chromatographic peak, the area is recorded using GC/MS Solution software, then entered into an Excel spreadsheet. Diffusion curves giving the area of the chromatographic peak corresponding to each active ingredient as a function of time are then plotted.
Analyses were carried out by gas chromatography/mass spectrometry (GC/MS). The instrument was a Shimadzu GCMS QP2010SE® equipped with an AOC 6000® autosampler. Separation was carried out on a ZB-FFAP® column (30 m×0.25 mm×0.25 μm, stationary phase: nitroterephthalic acid-modified polyethylene glycol) supplied by Phenomenex. The furnace temperature was initially set at 80° C. for 1 minute, then increased at 10° C./min to 240° C. and maintained at this temperature for 2 minutes. The carrier gas was helium at a flow rate of 1 mL/min. Analysis time is 19 minutes.
The injector is a split/splitless injector used in split mode (temperature: 250° C., split: 50:1). The SPME fiber was injected directly into the injector and left to desorb for 15 minutes.
The separated molecules were detected using a mass spectrometer equipped with an electron impact source (temperature: 200° C.). The analyzer is a simple quadrupole. The interface temperature is 250° C. Data were acquired in FASST mode (Fast automated SCAN/SIM type), i.e. part of the analysis was performed by scanning all ions (SCAN) and part by selecting specific ions (SIM). Target molecules were thus analyzed using ion selection.

[2] = Ratios of molecules diffused through the sticks over time; type: physicochemical
Experimental: Furthermore, as small molecules diffuse more, it happens that they lose intensity over the course of the study, so the ratios are different 24 hours after immersing the sticks in the liquid and 21 days later. Here are the ratios for each pheromone studied at the start of the study and at the end.

[3] = cited from earlier work
[4] = Indirect assay of diffuser blocks (GC/FID, pheromone remaining in the block); type: physicochemical; conditions: despecified pheromone
Experimental: Analyses were carried out using the gas chromatography (GC) technique with a flame ionization detector (FID), commonly known as GC/FID. The instrument used was the Shimadzu GC2025.® • Injection: Quantity injected: 1 μL, split 50:1, temperature: 230° C. • Separation: DB-WAX column (Agilent), length: 20 m, diameter: 180 μm, film thickness: […] • Carrier gas: Helium (He) • Analysis time: 11.50 min (not including time to return to equilibrium between each analysis) injection). • Detection: FID, temperature: 250° C., flow rates: H2: 40 mL/min, Air: 400 mL/min, Nitrogen (make-up): 30 mL/min. To obtain a representative sample, “cores” were drilled at various positions in the block and then collected. 2.5 g of gel were weighed into a 50 mL volumetric flask and the volume made up to the beginning of the neck of the flask with acetone. The flask was then placed in an ultrasonic bath for one hour until the block was dissolved (a white precipitate was obtained), then acetone was added to the mark. An aliquot of this solution was placed in a syringe fitted with a syringe filter and filtered to obtain a translucent solution. The resulting solution was transferred to a 1.5 mL GC vial for analysis. The assays were carried out using a calibration range.

[5] = Direct diffusion of diffuser blocks (SPME GC/MS); type: physicochemical; conditions: despecified pheromone 2%, 4 weeks
Experimental: Analyses were carried out using gas chromatography (GC) coupled to a mass spectrometer (MS) detector, a technique commonly referred to as GCMS. The molecules of interest were extracted using the Solid Phase Micro-Extraction (SPME) technique. The instrument used was the following: QP2010SE® from Shimadzu (See FIG. 4).
AOC 6000® automatic feeder • Extraction/SPME fiber: polyacrylate/Fused silica (85 μm), 23 Ga. • Adsorption time: 2 hours (exposure time of fiber above block) (See FIG. 4) • Desorption time: 30 minutes (fiber exposure time in injector) • Fiber-block distance: 2 cm • Injection: split/splitless injector • Temperature: 250° C., split 50 mode. • Separation: ZB-FFAP® column (Phénomenex), length: 30 m, diameter: 250 μm, film thickness: […]
• Carrier gas: Helium (He) • Analysis time: 18 min (not including time to return to equilibrium between each analysis injection • Detection: mass spectrometer with electron impact source/analyzer: quadrupole. • Source temperature: 200° C. • Interface temperature: 250° C. • Scan m/z 50 to m/z 500 • SIM with ions 55, 66 and 74.
Analyses were carried out in triplicate to verify reproducibility of results.
With the SPME method, results are evaluated by measuring the chromatographic peak area. The data have been plotted on diffusion curve (see FIGS. 5 and 6).

[6] = Indirect assay of rod diffuser solution (GC/FID); type: physicochemical; conditions: stick diffuser solution, despecified pheromone
Experimental: Solution integrity was checked at each analysis time. Before each indirect assay, the vial was weighed to visualize mass loss over time. Each vial contained six sticks. • Specifications: the solution must lose mass over time. • Result: Compliant—See FIG. 9 This is the same analytical method as for the diffuser block study, only the sample preparation differs. 1.25 g of solution were weighed into a 25 mL volumetric flask and the volume made up to the mark with acetone. The resulting solution is transferred to a 1.5 mL GC vial for analysis. This is exactly the same calibration range as for the diffuser block study.

[7] = Pheromone migrated to the stick tips (GC/FID); type: physicochemical; conditions: on stick tips, despecified pheromone
Experimental: In the course of this study, we also measured the amount of pheromone migrating on the sticks, to check that the pheromone had migrated to the top of the sticks, helping it to diffuse into the air. To do this, the test is the same as for the diffuser blocks: 2.5 g of stick tips are cut off and placed in a 50 mL flask, which is then placed in an ultrasonic bath for one hour. The resulting solution is filtered (to avoid injecting particles into the instrument) and placed in a chromatographic vial for analysis.

[8] = F3 block stability study in sodium stearate aqueous gel (GC-MS); type: physicochemical; conditions: after 3 months
Experimental: Aqueous sodium stearate gel is a method used by SIGNS for several of the pheromones it markets (pork, poultry, rabbit). The sodium stearate matrix is cast at high temperature (60° C.) and contains 2% pheromone. In this study, matrix samples are taken by coring, and the active ingredients are extracted by apolar solvent, using the SIGNS-validated quality control method. Extracts are analyzed by GC-MS. […] Given this observation, formula F3 cannot be used in blocks for passive diffusion, so a change of galenic formulation is necessary.

[9] = F3 sticks device, direct diffusion, 40 mL and four sticks (SPME GC/MS); type: physicochemical; conditions: four sticks
Experimental: Three devices containing 40 mL of F3 feline facial pheromone product and four rattan sticks were prepared and left on diffusion. Every Monday, Wednesday and Friday, the diffusion of the pheromone in air was checked by analysis by gas chromatography coupled with mass spectrometer (GC/MS) and SPME (solid phase microextraction) until there is no liquid left (about 22 days).
To that purpose, the studied device was taken and placed into a closed space (in our case an aquarium turned over) containing the SPME fiber as shown on FIG. 24.
The SPME fiber was left for two hours to give the time for the molecules to adsorb on the fiber, then the fiber was injected into the GC/MS instrument for analysis.
Analysis were carried out using gas chromatography with mass spectrometer. The instrument was a GCMS QP2010SE® from Shimadzu with an AOC6000® Autosampler. The separation was performed on a ZB-5 MS® column (30 m×0.25 mm×0.25 μm, stationary phase: 95% Dimethylpolysiloxane, 5% Phenyl-Arylene) from Phenomenex. The GC oven temperature was initially held at 100° C. for 1 minute then increased at a pace of 10° C./min to 120° C. and left at this temperature for 3 minutes. Finally, the oven temperature was increased at a pace of 10° C./min to 240° C. and left at this temperature for 10 minutes. The carrier gas was helium at 1 mL/min. Analysis were performed in split mode using a split/splitless injector (Temperature: 250° C., split: 1:20). The SPME fiber was directly injected into the injector and left for 30 minutes. Separated molecules were detected using a mass spectrometer which was operated in electron impact ionization (EI) in both full scan (FS) and single ion monitoring (SIM) modes, so called FASST (Fast Automated SCAN/SIM type) mode. The interface temperature was set at 300° C. and electron impact source temperature at 250° C. The analyser was a quadrupole.
For the measurement of the relative quantity of active ingredient spreading in air, the area of the chromatographic peak corresponding to the compound was measured using Shimadzu GCMS-Solution software.

[10] = F3 migration along the stick (top 1 cm, GC/MS); type: physicochemical; conditions: F3, five sticks
Experimental: Three devices containing 40 mL of F3 feline facial pheromone product and five […] sticks were prepared and left on diffusion. A t=1 day, T=3 days, T=10 days, T=15 days and T=22 days after preparation of the devices, one stick was taken on each device and 1 cm of the top of each stick was cut, then extracted with acetone 1 h in an ultrasonic bath and analysed by gas chromatography coupled with mass spectrometry (GC/MS). The same analytical parameters were used for the study C with a liquid injection (injected quantity: […]) Blank analysis and matrix blank analysis were also performed.

[11] = DAP, 24 h after immersion of sticks
[12] = DAP, 21 days after immersion of sticks (empty tank)
[13] = F3P, 24 h after immersion of the sticks
[14] = F3P, 21 days after immersion of sticks (empty tank)

**Q.** Which results are given for `CCCCCCCCCCCCCCC(=O)OC` [methyl pentadecanoate]?
**A.** direct diffusion over time [1]: slight increase over time; ratio of molecules diffused through the sticks [2, 11]: 7 % (w/w); ratio of molecules diffused through the sticks [2, 12]: 9 % (w/w)

**Q.** Which results are given for `COC(C)(C)CCO` [3-methoxy-3-methyl-1-butanol]?
**A.** vapor pressure ([3]; at 20° C.): 0.07 kPa; vapor pressure ([3]; at 25° C.): 0.12 kPa

**Q.** Which “direct diffusion over time” value [1] does the source give for `CCCCCCCCCCCCCCCCCC(=O)OC` [methyl stearate, methyl octadecanoate] here?
**A.** diffuses the least

**Q.** And the “ratio of molecules diffused through the sticks” value (“ratio” for short) [2, 11]?
**A.** 0.5 % (w/w)

**Q.** And the “ratio” value [2, 12]?
**A.** 1 % (w/w)

**Q.** And the “ratio” value [2, 13]?
**A.** 0.1 % (w/w)

**Q.** And the “ratio” value [2, 14]?
**A.** 0.1 % (w/w)

**Q.** With `CCCCC/C=C\C/C=C\CCCCCCCC(=O)OC` [methyl linoleate, methyl (9Z,12Z)-octadeca-9,12-dienoate] as the molecule, how does the “% of the active ingredient in the pheromone” value (from here on “% of the active ingredient”) ([4]; day 0) read?
**A.** 30.4%

**Q.** What about the “% of the active ingredient” value ([4]; day 7) of the same molecule?
**A.** 30.2%

**Q.** And the “% of the active ingredient” value ([4]; day 14)?
**A.** 30.4%

**Q.** And the “% of the active ingredient” value ([4]; day 21)?
**A.** 30.5%

**Q.** And the “% of the active ingredient” value ([4]; day 28)?
**A.** 30.5%

**Q.** What about the “direct diffusion from the diffuser block” value [5] of the same molecule?
**A.** lowest intensity

**Q.** And the “% of the active ingredient” value ([6]; day 0)?
**A.** 30.0%

**Q.** And the “% of the active ingredient” value ([6]; day 7)?
**A.** 30.0%

**Q.** And the “% of the active ingredient” value ([6]; day 14)?
**A.** 30.1%

**Q.** And the “% of the active ingredient” value ([6]; day 21)?
**A.** 31.5%

**Q.** What about the “% of the active ingredient” value ([7]; day 7) of the same molecule?
**A.** 29.7%

**Q.** What about the “% of the active ingredient” value ([7]; day 14) of the same molecule?
**A.** 30.1%

**Q.** What about the “% of the active ingredient” value ([7]; day 21) of the same molecule?
**A.** 28.6%

**Q.** What about the “direct diffusion over time” value [1] of the same molecule?
**A.** slight increase over time

**Q.** What about the “ratio” value [2, 11] of the same molecule?
**A.** 3 % (w/w)

**Q.** And the “ratio” value [2, 12]?
**A.** 4 % (w/w)

**Q.** And the “ratio” value ([2]; Despecified pheromone (Core), 5 days after immersion of the sticks)?
**A.** 2 % (w/w)

**Q.** What about the “ratio” value ([2]; Despecified pheromone (Core), 21 days after immersion of sticks (empty tank)) of the same molecule?
**A.** 4 % (w/w)

**Q.** What about the “ratio” value [2, 13] of the same molecule?
**A.** 0.3 % (w/w)

**Q.** And the “ratio” value [2, 14]?
**A.** 0.5 % (w/w)

**Q.** Which “stability in the block” value [8] does the source give for `COC(=O)CCCCCCCC(=O)OC` [dimethyl azelate, dimethyl nonanedioate] here?
**A.** disappeared completely

**Q.** And the “direct diffusion over time” value [9]?
**A.** constant diffusion

**Q.** And the “relative quantity on the top of the stick” value [10]?
**A.** less present

**Q.** And the “ratio” value ([2]; F3, 24 h after immersion of sticks)?
**A.** 25 % (w/w)

**Q.** And the “ratio” value ([2]; F3, 21 days after immersion of sticks (empty tank))?
**A.** 43 % (w/w)

**Q.** What about the “ratio” value [2, 13] of the same molecule?
**A.** 18 % (w/w)

**Q.** What about the “ratio” value [2, 14] of the same molecule?
**A.** 31.3 % (w/w)
